PubChem BioAssay (NCI)
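Step 1: Grow cells in 96-well plates. Step 2: Expose to compound for 48 hours at 5 concentrations. Step 3: Interpolate endpoints linearly; if unreached, use highest concentration. GI50 marks 50% less growth. The concentration for full growth arrest is given as TGI.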

Legend:
Assay in all cases: NCI-60 cell line screen, 48 h
NCI/ADR-RES ovarian = test system: NCI/ADR-RES ovarian
LOX IMVI melanoma = test system: LOX IMVI melanoma
SF-539 CNS = test system: SF-539 CNS
OVCAR-8 ovarian = test system: OVCAR-8 ovarian
IGROV1 ovarian = test system: IGROV1 ovarian
T-47D breast = test system: T-47D breast
MOLT-4 leukemia = test system: MOLT-4 leukemia
NCI-H522 lung = test system: NCI-H522 lung
PC-3 prostate = test system: PC-3 prostate
MDA-MB-231 breast = test system: MDA-MB-231 breast

Compound: CSc1ncc2c(n1)-c1ccccc1OC2N1CCCC1 (stereo unspecified)
- TGI (NCI/ADR-RES ovarian): > 100 µM
- TGI (LOX IMVI melanoma): > 100 µM
- TGI (SF-539 CNS): > 100 µM
- TGI (OVCAR-8 ovarian): > 100 µM
- TGI (IGROV1 ovarian): > 100 µM
- TGI (T-47D breast): > 100 µM
- TGI (MOLT-4 leukemia): > 100 µM
- TGI (NCI-H522 lung): > 100 µM
- TGI (PC-3 prostate): > 100 µM
- TGI (MDA-MB-231 breast): > 100 µM

Compound: CCOC(=O)c1sc2c(c1OC(=O)c1ccccc1)c(=O)n(-c1ccccc1)c(=S)n2-c1ccccc1
- TGI (NCI/ADR-RES ovarian): 51 µM
- TGI (LOX IMVI melanoma): > 100 µM
- TGI (SF-539 CNS): 47.7 µM
- TGI (OVCAR-8 ovarian): > 100 µM
- TGI (IGROV1 ovarian): 43.3 µM
- TGI (T-47D breast): > 100 µM
- TGI (MOLT-4 leukemia): > 100 µM
- TGI (NCI-H522 lung): 56.3 µM
- TGI (PC-3 prostate): > 100 µM
- TGI (MDA-MB-231 breast): 87.2 µM

Compound: N#CC1=CNc2sccc2S1(=O)=O
- TGI (NCI/ADR-RES ovarian): > 100 µM
- TGI (LOX IMVI melanoma): > 100 µM
- TGI (SF-539 CNS): > 100 µM
- TGI (OVCAR-8 ovarian): > 100 µM
- TGI (IGROV1 ovarian): > 100 µM
- TGI (T-47D breast): > 100 µM
- TGI (MOLT-4 leukemia): > 100 µM
- TGI (NCI-H522 lung): > 100 µM
- TGI (PC-3 prostate): > 100 µM
- TGI (MDA-MB-231 breast): > 100 µM

Compound: O=C(O)c1ccccc1/C=N\NC1=NCCCCN1
- TGI (NCI/ADR-RES ovarian): > 100 µM
- TGI (LOX IMVI melanoma): > 100 µM
- TGI (SF-539 CNS): > 100 µM
- TGI (OVCAR-8 ovarian): > 100 µM
- TGI (IGROV1 ovarian): > 100 µM
- TGI (T-47D breast): > 100 µM
- TGI (MOLT-4 leukemia): > 100 µM
- TGI (NCI-H522 lung): > 100 µM
- TGI (PC-3 prostate): > 100 µM
- TGI (MDA-MB-231 breast): > 100 µM

Compound: N#CCc1nc(C#N)c(N)o1
- TGI (NCI/ADR-RES ovarian): > 100 µM
- GI50 (LOX IMVI melanoma): > 100 µM
- TGI (LOX IMVI melanoma): > 100 µM
- TGI (SF-539 CNS): > 100 µM
- TGI (OVCAR-8 ovarian): > 100 µM
- TGI (IGROV1 ovarian): > 100 µM
- TGI (T-47D breast): > 100 µM
- TGI (MOLT-4 leukemia): > 100 µM
- TGI (NCI-H522 lung): > 100 µM
- TGI (PC-3 prostate): > 100 µM
- TGI (MDA-MB-231 breast): > 100 µM

Compound: CC(C)(C)OC(=O)N1C(OP(=O)(Oc2ccccc2)Oc2ccccc2)=COc2cccnc21
- TGI (NCI/ADR-RES ovarian): > 100 µM
- TGI (LOX IMVI melanoma): 85.3 µM
- TGI (SF-539 CNS): > 100 µM
- TGI (OVCAR-8 ovarian): > 100 µM
- TGI (IGROV1 ovarian): > 100 µM
- TGI (T-47D breast): 94.2 µM
- TGI (MOLT-4 leukemia): 43.3 µM
- TGI (NCI-H522 lung): > 100 µM
- TGI (PC-3 prostate): > 100 µM
- TGI (MDA-MB-231 breast): > 100 µM

Compound: Cc1[nH]c(-c2ccccc2)c(-c2ccc(Cl)cc2)c1C(=O)ONC(=O)c1ccccc1
- TGI (NCI/ADR-RES ovarian): 14.2 µM
- TGI (LOX IMVI melanoma): 2.87 µM
- TGI (SF-539 CNS): 6.02 µM
- TGI (OVCAR-8 ovarian): 17 µM
- TGI (IGROV1 ovarian): 2.52 µM
- TGI (T-47D breast): 18.1 µM
- TGI (MOLT-4 leukemia): 6.97 µM
- TGI (NCI-H522 lung): 5.42 µM
- TGI (PC-3 prostate): 17.2 µM
- TGI (MDA-MB-231 breast): 12.1 µM

Compound: CCCCCCCCCCCCCCCCNc1nc(=O)n(C2CC(O)C(CO)O2)cc1F (stereo unspecified)
- TGI (NCI/ADR-RES ovarian): 27.1 µM
- TGI (LOX IMVI melanoma): 24.1 µM
- TGI (SF-539 CNS): 11.4 µM
- TGI (OVCAR-8 ovarian): 23.9 µM
- TGI (IGROV1 ovarian): 27.6 µM
- TGI (T-47D breast): 25.3 µM
- TGI (MOLT-4 leukemia): 37.7 µM
- TGI (NCI-H522 lung): 20.7 µM
- TGI (PC-3 prostate): 21.2 µM
- TGI (MDA-MB-231 breast): 43.3 µM

Compound: CN1C2CC(=O)CC1[C@@H]1OC(c3ccccc3)O[C@H]21 (stereo partly specified)
- TGI (NCI/ADR-RES ovarian): > 100 µM
- TGI (LOX IMVI melanoma): > 100 µM
- TGI (SF-539 CNS): > 100 µM
- TGI (OVCAR-8 ovarian): > 100 µM
- TGI (IGROV1 ovarian): > 100 µM
- TGI (T-47D breast): > 100 µM
- TGI (MOLT-4 leukemia): > 100 µM
- TGI (NCI-H522 lung): > 100 µM
- TGI (PC-3 prostate): > 100 µM
- TGI (MDA-MB-231 breast): > 100 µM

Compound: Cc1ccc(S(=O)(=O)N2CCN(CCN(C)CCN3CCN(S(=O)(=O)c4ccc(C)cc4)CC3)CC2)cc1
- TGI (NCI/ADR-RES ovarian): 43.1 µM
- TGI (LOX IMVI melanoma): 33 µM
- TGI (SF-539 CNS): 30.3 µM
- TGI (OVCAR-8 ovarian): 32.7 µM
- TGI (IGROV1 ovarian): 33.6 µM
- TGI (T-47D breast): 48 µM
- TGI (MOLT-4 leukemia): 36 µM
- TGI (NCI-H522 lung): 38.9 µM
- TGI (PC-3 prostate): 56 µM
- TGI (MDA-MB-231 breast): 49 µM

Compound: CC[N+](C)(CC)CCN1C(=O)c2ccccc2S1(=O)=O
- TGI (NCI/ADR-RES ovarian): > 100 µM
- TGI (LOX IMVI melanoma): > 100 µM
- TGI (SF-539 CNS): > 100 µM
- TGI (OVCAR-8 ovarian): > 100 µM
- TGI (IGROV1 ovarian): > 100 µM
- TGI (T-47D breast): > 100 µM
- TGI (MOLT-4 leukemia): > 100 µM
- TGI (NCI-H522 lung): > 100 µM
- TGI (PC-3 prostate): > 100 µM
- TGI (MDA-MB-231 breast): > 100 µM

Compound: N#Cc1c2c(c(N3CCOCC3)n3c1nc1ccccc13)CCCC2
- TGI (NCI/ADR-RES ovarian): 43.2 µM
- TGI (LOX IMVI melanoma): 41.1 µM
- TGI (SF-539 CNS): 39.3 µM
- TGI (OVCAR-8 ovarian): 43.4 µM
- TGI (IGROV1 ovarian): 34.9 µM
- TGI (T-47D breast): 41.5 µM
- TGI (MOLT-4 leukemia): 41.5 µM
- TGI (NCI-H522 lung): 30.1 µM
- TGI (PC-3 prostate): 50.3 µM
- TGI (MDA-MB-231 breast): 54.7 µM

Compound: O=C1C=CC(=O)c2ncccc21
- TGI (NCI/ADR-RES ovarian): 36.1 µM
- TGI (LOX IMVI melanoma): 6.32 µM
- TGI (SF-539 CNS): 22.6 µM
- TGI (OVCAR-8 ovarian): 26.5 µM
- TGI (IGROV1 ovarian): 17.6 µM
- TGI (T-47D breast): 5.18 µM
- TGI (MOLT-4 leukemia): > 24.1 µM
- TGI (NCI-H522 lung): 3.44 µM
- TGI (PC-3 prostate): 22.3 µM
- TGI (MDA-MB-231 breast): 8.06 µM

Compound: O=C(/C=C/c1ccc([N+](=O)[O-])cc1)c1nc2ccccc2[nH]1
- TGI (NCI/ADR-RES ovarian): > 100 µM
- TGI (LOX IMVI melanoma): > 100 µM
- TGI (SF-539 CNS): > 73.6 µM
- TGI (OVCAR-8 ovarian): > 100 µM
- TGI (IGROV1 ovarian): 17.9 µM
- TGI (T-47D breast): > 84.8 µM
- TGI (MOLT-4 leukemia): 99.7 µM
- TGI (NCI-H522 lung): > 100 µM
- TGI (PC-3 prostate): > 100 µM
- TGI (MDA-MB-231 breast): > 57.2 µM

Compound: CCCCCCCCCCCCCCCCCCOCC(O)COP(=O)(O)OCC1OC(n2cc(F)c(=O)[nH]c2=O)CC1O (stereo unspecified)
- TGI (NCI/ADR-RES ovarian): 22 µM
- TGI (LOX IMVI melanoma): 15.1 µM
- TGI (SF-539 CNS): 12.4 µM
- TGI (OVCAR-8 ovarian): 18.9 µM
- TGI (IGROV1 ovarian): 26.8 µM
- TGI (T-47D breast): 38.8 µM
- TGI (MOLT-4 leukemia): 21.6 µM
- TGI (NCI-H522 lung): 27.9 µM
- TGI (PC-3 prostate): 18.8 µM
- TGI (MDA-MB-231 breast): 36.1 µM

Compound: COc1cccc(-c2nc3sccn3c2-c2ccnc(NCCNC(=O)Nc3cccc(C(F)(F)F)c3)n2)c1
- GI50 (NCI/ADR-RES ovarian): 3.45 µM
- TGI (NCI/ADR-RES ovarian): > 100 µM
- GI50 (LOX IMVI melanoma): 4.11 µM
- TGI (LOX IMVI melanoma): > 100 µM
- GI50 (SF-539 CNS): 3.83 µM
- TGI (SF-539 CNS): 17.1 µM
- GI50 (OVCAR-8 ovarian): 3.28 µM
- TGI (OVCAR-8 ovarian): 9.79 µM
- GI50 (IGROV1 ovarian): 3.32 µM
- TGI (IGROV1 ovarian): 21.8 µM
- GI50 (T-47D breast): 3.77 µM
- TGI (T-47D breast): 13.8 µM
- GI50 (MOLT-4 leukemia): 3.27 µM
- TGI (MOLT-4 leukemia): 9.94 µM
- GI50 (NCI-H522 lung): 2.67 µM
- TGI (NCI-H522 lung): 8.51 µM
- GI50 (PC-3 prostate): 2.48 µM
- TGI (PC-3 prostate): 11.9 µM
- GI50 (MDA-MB-231 breast): 3.47 µM
- TGI (MDA-MB-231 breast): 12 µM

Compound: O=C(NNC(=S)Nc1ccccc1)c1csc(NC(=S)NC2CCCCC2)n1
- TGI (NCI/ADR-RES ovarian): > 100 µM
- TGI (LOX IMVI melanoma): 69.5 µM
- TGI (SF-539 CNS): > 100 µM
- TGI (OVCAR-8 ovarian): > 100 µM
- TGI (IGROV1 ovarian): > 100 µM
- TGI (T-47D breast): > 100 µM
- TGI (MOLT-4 leukemia): > 100 µM
- TGI (NCI-H522 lung): > 100 µM
- TGI (PC-3 prostate): > 100 µM
- TGI (MDA-MB-231 breast): > 100 µM

Compound: CCOC(=O)C1=C(C)NC(=S)NC1c1cccc(O)c1 (stereo unspecified)
- TGI (NCI/ADR-RES ovarian): > 100 µM
- TGI (LOX IMVI melanoma): > 100 µM
- TGI (SF-539 CNS): > 100 µM
- TGI (OVCAR-8 ovarian): > 100 µM
- TGI (IGROV1 ovarian): > 100 µM
- TGI (T-47D breast): > 100 µM
- TGI (MOLT-4 leukemia): > 100 µM
- TGI (NCI-H522 lung): 93.9 µM
- TGI (PC-3 prostate): > 89.6 µM
- TGI (MDA-MB-231 breast): > 90 µM

Compound: Cc1cc(S(=O)(=O)Nc2nnc3cc(C(F)(F)F)cc(C)n23)c(S)cc1Cl
- TGI (NCI/ADR-RES ovarian): > 100 µM
- TGI (LOX IMVI melanoma): > 100 µM
- TGI (SF-539 CNS): > 96.6 µM
- TGI (OVCAR-8 ovarian): > 100 µM
- TGI (IGROV1 ovarian): > 100 µM
- TGI (T-47D breast): > 100 µM
- TGI (MOLT-4 leukemia): > 100 µM
- TGI (NCI-H522 lung): > 100 µM
- TGI (PC-3 prostate): > 100 µM
- TGI (MDA-MB-231 breast): > 100 µM
